# Source: US20090030024A1, “THIAZOLES AS FUNGICIDES” (priority 2005, published 2009)
# Marks after values point to notes of the source that are not given here.
# Assay: logP determination by retention times (calibration with alkan-2-ones)
# Conditions: not given
row,Structure (SMILES),chromatographic logP
1,"CC(=O)c1cccc(Nc2nccc(-c3cnc(C)s3)n2)c1 [Example 11, 1-(3-{[4-(2-methyl-1,3-thiazol-5-yl)pyrimidin-2-yl]amino}phenyl)ethanone]",2.57
2,"COCc1nc(C)c(-c2ccnc(Nc3ccc(OC)c(OC)c3)n2)s1 [Example 404, N-(3,4-dimethoxyphenyl)-4-[2-(methoxymethyl)-4-methyl-1,3-thiazol-5-yl]pyrimidine-2-amine]",2.23
3,"COc1cc(Nc2nccc(-c3sc(C4CCCCC4)nc3C)n2)cc(OC)c1OC [Example 215, 4-(2-cyclohexyl-4-methyl-1,3-thiazol-5-yl)-N-(3,4,5-trimethoxyphenyl)pyrimidine-2-amine]",3.97
4,"CC(=O)c1cccc(Nc2nccc(-c3sc(NCC4CCCO4)nc3C)n2)c1 (stereo not shown) [Example 39, 1-{3-[(4-{4-methyl-2-[(tetrahydrofuran-2-ylmethyl)amino]-1,3-thiazol-5-yl}pyrimidin-2-yl)amino]phenyl}ethanone]",1.82
5,"Cc1nc(C2CC2)sc1-c1ccnc(Nc2ccc(C(F)(F)F)cc2)n1 [Example 230, 4-(2-cyclopropyl-4-methyl-1,3-thiazol-5-yl)-N-[4-(trifluoromethyl)phenyl]pyrimidine-2-amine]",4.2
6,"Cc1nc(C2CC2)sc1-c1ccnc(Nc2ccc(F)cc2)n1 [Example 227, 4-(2-cyclopropyl-4-methyl-1,3-thiazol-5-yl)-N-(4-fluorophenyl)pyrimidine-2-amine]",3.31
7,"Cc1nc(C2CC2)sc1-c1ccnc(Nc2cccc([N+](=O)[O-])c2)n1 [Example 225, 4-(2-cyclopropyl-4-methyl-1,3-thiazol-5-yl)-N-(3-nitrophenyl)pyrimidine-2-amine]",3.29

# Same assay, conditions: * HPLC reversed-phase C18, 40° C., mobile phase 0.1% aqueous formic acid and acetonitrile, linear gradient 10% to 95% acetonitrile
row,Structure (SMILES),logP
1,"CNc1nc(C)c(-c2ccnc(Nc3cccc(Cl)c3)n2)s1 [Example 434, N-(3-chlorophenyl)-4-[4-methyl-2-(methylamine)-1,3-thiazol-5-yl]pyrimidine-2-amine]",2.03*
2,"CN(C)c1nc(C(F)(F)F)c(-c2ccnc(Nc3ccc(N4CCCC4=O)cc3)n2)s1 [Example 770, 1-[4-({4-[2-(dimethylamine)-4-(trifluoromethyl)-1,3-thiazol-5-yl]pyrimidin-2-yl}amino)phenyl]pyrrolidin-2-one]",2.99*
3,"CN(C)c1nc(C(F)(F)F)c(-c2ccnc(Nc3cccc(O)c3)n2)s1 [Example 702, 3-({4-[2-(dimethylamine)-4-(trifluoromethyl)-1,3-thiazol-5-yl]pyrimidin-2-yl}amino)phenol]",2.84*
4,"CC(=O)c1cccc(Nc2nccc(-c3sc(N(C)C)nc3C)n2)c1 [Example 685, 1-[3-({4-[2-(dimethylamine)-4-methyl-1,3-thiazol-5-yl]pyrimidin-2-yl}amino)phenyl]ethanone]",1.89*
5,"CC(=O)Nc1cccc(Nc2nccc(-c3sc(N(C)C)nc3C)n2)c1 [Example 762, N-[3-({4-[2-(dimethylamine)-4-methyl-1,3-thiazol-5-yl]pyrimidin-2-yl}amino)phenyl]acetamide]",1.42*

# Same assay, conditions: HPLC, reversed-phase C 18, EEC Directive 79/831 Annex V.A8; method *: 40° C., 0.1% aqueous formic acid and acetonitrile, linear gradient 10% to 95% acetonitrile
row,Structure (SMILES),logP
1,"CNc1nc(C)c(-c2ccnc(Nc3ccccc3)n2)s1 [Example 315, 4-[4-methyl-2-(methylamine)-1,3-thiazol-5-yl]-N-phenylpyrimidine-2-amine]",1.61*

# Same assay, conditions: logP, * HPLC reversed-phase C18, 40° C., mobile phase 0.1% aqueous formic acid and acetonitrile, linear gradient 10% to 95% acetonitrile
row,Structure (SMILES),chromatographic logP
1,"CC(=O)N(Cc1cccc(Nc2nccc(-c3sc(C4CC4)nc3C)n2)c1)C(C)=O [Example 621, N-acetyl-N-(3-{[4-(2-cyclopropyl-4-methyl-1,3-thiazol-5-yl)pyrimidin-2-yl]amino}benzyl)acetamide]",1.87
2,"Cc1nc(C2CC2)sc1-c1ccnc(Nc2ccc3c(c2)OCO3)n1 [Example 617, N-1,3-benzodioxol-5-yl-4-(2-cyclopropyl-4-methyl-1,3-thiazol-5-yl)pyrimidine-2-amine]",2.96
3,"CCc1nc(C)c(-c2ccnc(Nc3ccc(OC)c(O)c3)n2)s1 [Example 791, 5-{[4-(2-ethyl-4-methyl-1,3-thiazol-5-yl)pyrimidin-2-yl]amino}-2-methoxyphenol]",2.09
4,"CCc1nc(C)c(-c2ccnc(Nc3ccc(N4CCCC4=O)cc3)n2)s1 [Example 748, 1-(4-{[4-(2-ethyl-4-methyl-1,3-thiazol-5-yl)pyrimidin-2-yl]amino}phenyl)pyrrolidin-2-one]",2.24
5,"COCCNc1nc(C)c(-c2ccnc(Nc3ccc(NC(C)=O)cc3)n2)s1 [Example 683, N-{4-[(4-{2-[(2-methoxyethyl)amino]-4-methyl-1,3-thiazol-5-yl}pyrimidin-2-yl)amino]phenyl}acetamide]",1.35
6,"COCCNc1nc(C)c(-c2ccnc(Nc3ccc(C)c([N+](=O)[O-])c3)n2)s1 [Example 806, 4-{2-[(2-methoxyethyl)amino]-4-methyl-1,3-thiazol-5-yl}-N-(4-methyl-3-nitrophenyl)pyrimidine-2-amine]",2.17
7,"CC(=O)NCc1cccc(Nc2nccc(-c3sc(C4CC4)nc3C)n2)c1 [Example 414, N-(3-{[4-(2-cyclopropyl-4-methyl-1,3-thiazol-5-yl)pyrimidin-2-yl]amino}benzyl)acetamide]",1.96
8,"COc1cc(Nc2nccc(-c3sc(C)nc3C(F)F)n2)cc(OC)c1OC [Example 708, 4-[4-(difluoromethyl)-2-methyl-1,3-thiazol-5-yl]-N-(3,4,5-trimethoxyphenyl)pyrimidine-2-amine]",2.61
9,"COc1cc(N(C(C)=O)c2nccc(-c3sc(C(C)C)nc3C)n2)cc(OC)c1OC [Example 666, N-[4-(2-isopropyl-4-methyl-1,3-thiazol-5-yl)pyrimidin-2-yl]-N-(3,4,5-trimethoxyphenyl)acetamide]",2.53
10,"Cc1nc(C(C)C)sc1-c1ccnc(Nc2ccc(Cl)cc2)n1 [Example 464, N-(4-chlorophenyl)-4-(2-isopropyl-4-methyl-1,3-thiazol-5-yl)pyrimidine-2-amine]",4.25
11,"Cc1cc(Nc2nccc(-c3sc(NCC4CCCO4)nc3C)n2)ccc1F (stereo not shown) [Example 483, N-(4-fluoro-3-methylphenyl)-4-{4-methyl-2-[(tetrahydrofuran-2-ylmethyl)amino]-1,3-thiazol-5-yl}pyrimidine-2-amine]",2.03
12,"CCc1nc(C)c(-c2ccnc(N(C(C)=O)c3cc(OC)c(OC)c(OC)c3)n2)s1 [Example 669, N-[4-(2-ethyl-4-methyl-1,3-thiazol-5-yl)pyrimidin-2-yl]-N-(3,4,5-trimethoxyphenyl)acetamide]",2.19
13,"Cc1nc(N2CCOCC2)sc1-c1ccnc(Nc2ccccc2)n1 [Example 731, 4-(4-methyl-2-morpholin-4-yl-1,3-thiazol-5-yl)-N-phenylpyrimidine-2-amine]",2.25
14,"COCc1nc(C)c(-c2ccnc(Nc3ccc(O)cc3)n2)s1 [Example 763, 4-({4-[2-(methoxymethyl)-4-methyl-1,3-thiazol-5-yl]pyrimidin-2-yl}amino)phenol]",1.8

# Same assay, conditions: logP, ** HPLC reversed-phase C18, 43° C., mobile phase 0.1% aqueous phosphoric acid and acetonitrile, linear gradient 10% to 95% acetonitrile
row,Structure (SMILES),chromatographic logP
1,"Cc1nc(C)c(-c2ccnc(Nc3ccc(Cl)cc3)n2)s1 [Example 462, N-(4-chlorophenyl)-4-(2,4-dimethyl-1,3-thiazol-5-yl)pyrimidine-2-amine]",3.09

# Same assay, conditions: logP, values marked *: HPLC on reversed-phase C 18, 40° C., mobile phase 0.1% aqueous formic acid and acetonitrile, linear gradient 10% to 95% acetonitrile
row,Structure (SMILES),chromatographic logP
1,"CCc1nc(C)c(-c2ccnc(Nc3ccc(C(=O)OCCOC)cc3)n2)s1 [Example 881, 2-methoxyethyl-4-{[4-(2-ethyl-4-methyl-1,3-thiazol-5-yl)pyrimidin-2-yl]amino}benzoate]",2.91
2,"CC(=O)c1cccc(Nc2nccc(-c3sc(C(C)(C)C)nc3C)n2)c1 [Example 887, 1-(3-{[4-(2-tert-butyl-4-methyl-1,3-thiazol-5-yl)pyrimidin-2-yl]amino}phenyl)ethanone]",3.66
3,"COCCCNc1nc(C)c(-c2ccnc(Nc3cccc(OC)c3)n2)s1 [Example 852, N-(3-methoxyphenyl)-4-{2-[(3-methoxypropyl)amino]-4-methyl-1,3-thiazol-5-yl}pyrimidine-2-amine]",1.89
4,"CCc1nc(C)c(-c2ccnc(Nc3ccc(F)c(OC)c3)n2)s1 [Example 863, 4-(2-ethyl-4-methyl-1,3-thiazol-5-yl)-N-(4-fluoro-3-methoxyphenyl)pyrimidine-2-amine]",2.99
5,"COc1ccc(Nc2nccc(-c3sc(C(C)(C)C)nc3C)n2)cn1 [Example 886, 4-(2-tert-butyl-4-methyl-1,3-thiazol-5-yl)-N-(6-methoxypyridin-3-yl)pyrimidine-2-amine]",3.42
6,"CC(=O)c1ccc(Nc2nccc(-c3sc(NCC4CCCO4)nc3C)n2)cc1 (stereo not shown) [Example 816, 1-{4-[(4-{4-methyl-2-[(tetrahydrofuran-2-ylmethyl)amino]-1,3-thiazol-5-yl}pyrimidin-2-yl)amino]phenyl}ethanone]",1.83
7,"COc1cc(Nc2ncc(Br)c(-c3sc(C(C)C)nc3C)n2)cc(OC)c1OC [Example 908, 5-bromo-4-(2-isopropyl-4-methyl-1,3-thiazol-5-yl)-N-(3,4,5-trimethoxyphenyl)pyrimidine-2-amine]",3.65
8,"CCc1nc(C)c(-c2ccnc(Nc3cccc(N(C)C)c3)n2)s1 [Example 880, N′-[4-(2-ethyl-4-methyl-1,3-thiazol-5-yl)pyrimidin-2-yl]-N,N-dimethylbenzene-1,3-diamine]",1.99

# Same assay, conditions: values marked *: HPLC on reversed-phase C 18, 40° C., mobile phase 0.1% aqueous formic acid and acetonitrile, linear gradient 10% to 95% acetonitrile
row,Structure (SMILES),logP
1,"CN(C)c1nc(C(F)(F)F)c(-c2ccnc(Nc3cccc([N+](=O)[O-])c3)n2)s1 [Example 859, 4-[2-(dimethylamine)-4-(trifluoromethyl)-1,3-thiazol-5-yl]-N-(3-nitrophenyl)pyrimidine-2-amine]",3.99*
